Reference: patent publication EP0237472A2, “An ameliorating agent for pulmonary fibrosis and the use thereof” (Zyma SA, priority 1986, dated 1987)

Legend:
[1] = acute oral toxicity (LD50) to male mice; conditions: mouse, in vivo
[2] = system: female Sprague-Dawley rats; assay: CCl4-induced lung fibrosis (lung collagen accumulation) in rats; format: in vivo
Description: The animals used were female Sprague-Dawley rats fed on a commercial diet (Hankkija Cy, Helsinki, Finland). Forty rats were divided into four groups of 10, the first serving as a control group. In order to investigate the effect of Compound 4 on lung collagen accumulation, the injury was induced by injecting carbon tetrachloride (CC14) intraperitoneally at doses of 0.1 ml/100 g body weight (diluted with an equal volume of paraffin oil) twice a week for 40 days. The third group received simultaneous doses of CCl4 and Compound 4. Compound 4 was suspended in arabic gum and given by gastric intubation at doses of 100 mg/kg body weight 5 times weekly for 40 days. The fourth group received only Compound 4. Two animals both in the CC14 group died during the experiment.
At the end of the experiment, the rats were anaesthetized with ether, weighed, and decapitated. The lungs were rapidly removed, weighed and the right one of them stored at -70°C until assayed. Tissue specimens for the determination of hydroxyproline and total protein were homogenized with an Ultra-Turrax homogenizer at 0°C in 0.5 M acetic acid (5 ml/g of tissue), dialyzed against 0.5 M acetic acid, and hydrolyzed in 6 M HC1 at 120°C overnight. Tissue hydroxyproline was assayed by the method of Kivirikko et al. and tissue total protein using the a-amino nitrogen method of Rubinstein and Pryce.
The left lung was fixed by slowly injecting a 4% formaldehyde and 1% glutaraldehyde solution into the main bronchus with the 1 ml syringe under magnifying lens control. Inflation of the lungs with fixative was continued until the pleura was smooth and the organ appeared to be filled. The bronchus was then left unclosed and the lungs were placed in the same solution until fixed. When the bronchus is left unclosed, the human lungs, at least, seem to assume a fairly constant volume during fixation, a little greater than the functional residual capacity. The lungs were then sliced sagittally and the slices embedded in paraffin. Sections were cut at 5 µm and stained with heamatoxylin-eosin, Pearl's iron, van Gieson's and Verhoeff's elastic stains.

[3] = CCl4 + Compound 4 (group M+I), CCl4 0.1 ml/100 g i.p. twice a week, Compound 4 100 mg/kg orally 5 times weekly, 40 days
[4] = Compound 4 alone (group M), 100 mg/kg by gastric intubation 5 times weekly for 40 days, no CCl4

**Q.** Which LD50 [1] does the source give for `CCOC(=O)C(C(=O)OC(C)C)=C1SC=CS1` [Compound 7] here?
**A.** 2700 mg/kg

**Q.** Which LD50 [1] does the source give for `COC(=O)C(C(=O)OC)=C1SC=CS1` [Compound 1] here?
**A.** > 6000 mg/kg

**Q.** Which LD50 [1] does the source give for `CC(C)COC(=O)C(C(=O)OCC(C)C)=C1SC=CS1` [Compound 6] here?
**A.** 4700 mg/kg

**Q.** Which LD50 [1] does the source give for `CCCOC(=O)C(C(=O)OCCC)=C1SC=CS1` [Compound 3] here?
**A.** > 6000 mg/kg

**Q.** Which LD50 [1] does the source give for `CCOC(=O)C(C(=O)OCC)=C1SC=CS1` [Compound 2] here?
**A.** 4900 mg/kg

**Q.** With `CCCCOC(=O)C(C(=O)OCCCC)=C1SC=CS1` [Compound 5] as the compound, how does the LD50 [1] read?
**A.** > 6000 mg/kg

**Q.** For `COC(=O)C(C(=O)OCC(C)C)=C1SC=CS1` [Compound 8], which LD50 [1] is on record?
**A.** 5800 mg/kg

**Q.** With `CC(C)OC(=O)C(C(=O)OC(C)C)=C1SC=CS1` [Compound 4] as the compound, how does the “Lung relative protein (mg/g of lung weight)” value [2, 3] read?
**A.** 20.61±2.05 mg/g of lung weight

**Q.** What about the “Lung total protein (mg/lungs)” value [2, 3] of the same compound?
**A.** 40.07±6.05 mg/lungs

**Q.** What about the “Lung weight/ body weight (%)” value [2, 3] of the same compound?
**A.** 0.89±0.17%

**Q.** What about the “total hydroxyproline content of the lungs” value ([2]; CCl4 + Compound 4, 100 mg/kg orally, 40 days (Figure 1)) of the same compound?
**A.** normalized the values

**Q.** And the “foci of necrotic alveolar walls” value ([2]; CCl4 + Compound 4, histology)?
**A.** All the lungs showed some foci of necrotic alveolar walls

**Q.** And the interstitial fibrosis ([2]; CCl4 + Compound 4 compared with CCl4-induced rats without Compound 4, histology)?
**A.** less interstitial fibrosis

**Q.** What about the “Lung relative protein (mg/g of lung weight)” value [2, 4] of the same compound?
**A.** 22.20±2.76 mg/g of lung weight

**Q.** And the “Lung total protein (mg/lungs)” value [2, 4]?
**A.** 38.31±4.90 mg/lungs

**Q.** What about the “Lung weight/ body weight (%)” value [2, 4] of the same compound?
**A.** 0.81±0.12%

**Q.** What about the “lungs exhibiting a fairly normal alveolar pattern” value ([2]; rats which received CCl4 and Compound 4, histology) of the same compound?
**A.** Five out of the nine

**Q.** What about the “lungs showing variable evidence of inflammatory reaction with minimal oedema” value ([2]; rats which received CCl4 and Compound 4, nine lungs, histology) of the same compound?
**A.** four

**Q.** What about the “alveolar pattern in the lungs” value ([2]; ten rats which received Compound 4 alone, histology) of the same compound?
**A.** normal
